Reference: article PMC12274840 (The Journal of Biological Chemistry, 2025)
Values after ≈ are worked out from the molar mass of the structure shown. Like-named read-outs stand apart in the source and are kept apart here.

Legend:
Assay type in all cases: cell-based
[1] = test system: E. coli KA797 cells carrying TEM-1 position 105 library; conditions: for Fi AMP AVG: average of replicates
[2] = test system: E. coli KA797 cells carrying pUK21 with NmcA (pelB/Sec); test: microbe, parasite or virus in culture; conditions: Escherichia coli, antibiotic alone
[3] = test system: E. coli KA797 cells carrying pUK21 with KPC-2 (Tat); test: microbe, parasite or virus in culture; conditions: Escherichia coli, antibiotic alone
[4] = test system: E. coli KA797 cells carrying pUK21 with BlaC WT (Tat); test: microbe, parasite or virus in culture; conditions: Escherichia coli, antibiotic alone
[5] = test system: E. coli KA797 cells carrying pUK21 vector without the β-lactamase gene; test: microbe, parasite or virus in culture; conditions: Escherichia coli; antibiotic alone; pUK21 without β-lactamase gene; read-out: MIC
[6] = test system: E. coli KA797 cells carrying KPC-2 position 105 library; conditions: selection with labelled antibiotic

CC1(C)S[C@@H]2[C@H](NC(=O)[C@H](N)c3ccccc3)C(=O)N2[C@H]1C(=O)O [ampicillin]
Significance (Average fitnes AMP) ([1]; AA 105 Ala): -
Fi AMP AVG ([1]; AA 105 Ala): -0.222
Fi AMP 1 ([1]; AA 105 Ala, replicate 1): -0.205
Fi AMP 2 ([1]; AA 105 Ala, replicate 2): -0.239
Significance (Average fitnes AMP) ([1]; AA 105 Arg): -
Fi AMP AVG ([1]; AA 105 Arg): -0.576
Fi AMP 1 ([1]; AA 105 Arg, replicate 1): -0.568
Fi AMP 2 ([1]; AA 105 Arg, replicate 2): -0.584
Significance (Average fitnes AMP) ([1]; AA 105 Asn): -
Fi AMP AVG ([1]; AA 105 Asn): -0.070
Fi AMP 1 ([1]; AA 105 Asn, replicate 1): -0.049
Fi AMP 2 ([1]; AA 105 Asn, replicate 2): -0.091
Significance (Average fitnes AMP) ([1]; AA 105 Asp): -
Fi AMP AVG ([1]; AA 105 Asp): -0.429
Fi AMP 1 ([1]; AA 105 Asp, replicate 1): -0.401
Fi AMP 2 ([1]; AA 105 Asp, replicate 2): -0.457
Significance (Average fitnes AMP) ([1]; AA 105 Cys): -
Fi AMP AVG ([1]; AA 105 Cys): -0.587
Fi AMP 1 ([1]; AA 105 Cys, replicate 1): -0.602
Fi AMP 2 ([1]; AA 105 Cys, replicate 2): -0.572
Significance (Average fitnes AMP) ([1]; AA 105 Gln): -
Fi AMP AVG ([1]; AA 105 Gln): -0.282
Fi AMP 1 ([1]; AA 105 Gln, replicate 1): -0.271
Fi AMP 2 ([1]; AA 105 Gln, replicate 2): -0.293
Significance (Average fitnes AMP) ([1]; AA 105 Glu): -
Fi AMP AVG ([1]; AA 105 Glu): -0.667
Fi AMP 1 ([1]; AA 105 Glu, replicate 1): -0.663
Fi AMP 2 ([1]; AA 105 Glu, replicate 2): -0.672
Significance (Average fitnes AMP) ([1]; AA 105 Gly): -
Fi AMP AVG ([1]; AA 105 Gly): -0.061
Fi AMP 1 ([1]; AA 105 Gly, replicate 1): -0.036
Fi AMP 2 ([1]; AA 105 Gly, replicate 2): -0.087
Significance (Average fitnes AMP) ([1]; AA 105 His): -
Fi AMP AVG ([1]; AA 105 His): -0.071
Fi AMP 1 ([1]; AA 105 His, replicate 1): -0.065
Fi AMP 2 ([1]; AA 105 His, replicate 2): -0.077
Significance (Average fitnes AMP) ([1]; AA 105 Ile): -
Fi AMP AVG ([1]; AA 105 Ile): -0.580
Fi AMP 1 ([1]; AA 105 Ile, replicate 1): -0.558
Fi AMP 2 ([1]; AA 105 Ile, replicate 2): -0.602
Significance (Average fitnes AMP) ([1]; AA 105 Leu): -
Fi AMP AVG ([1]; AA 105 Leu): -0.490
Fi AMP 1 ([1]; AA 105 Leu, replicate 1): -0.459
Fi AMP 2 ([1]; AA 105 Leu, replicate 2): -0.521
Significance (Average fitnes AMP) ([1]; AA 105 Lys): -
Fi AMP AVG ([1]; AA 105 Lys): -0.754
Fi AMP 1 ([1]; AA 105 Lys, replicate 1): -0.749
Fi AMP 2 ([1]; AA 105 Lys, replicate 2): -0.759
Significance (Average fitnes AMP) ([1]; AA 105 Met): -
Fi AMP AVG ([1]; AA 105 Met): -0.188
Fi AMP 1 ([1]; AA 105 Met, replicate 1): -0.138
Fi AMP 2 ([1]; AA 105 Met, replicate 2): -0.238
Significance (Average fitnes AMP) ([1]; AA 105 Phe): -
Fi AMP AVG ([1]; AA 105 Phe): -0.048
Fi AMP 1 ([1]; AA 105 Phe, replicate 1): -0.041
Fi AMP 2 ([1]; AA 105 Phe, replicate 2): -0.054
Significance (Average fitnes AMP) ([1]; AA 105 Pro): -
Fi AMP AVG ([1]; AA 105 Pro): -0.152
Fi AMP 1 ([1]; AA 105 Pro, replicate 1): -0.157
Fi AMP 2 ([1]; AA 105 Pro, replicate 2): -0.147
Significance (Average fitnes AMP) ([1]; AA 105 Ser): -
Fi AMP AVG ([1]; AA 105 Ser): -0.203
Fi AMP 1 ([1]; AA 105 Ser, replicate 1): -0.219
Fi AMP 2 ([1]; AA 105 Ser, replicate 2): -0.186
Significance (Average fitnes AMP) ([1]; AA 105 Thr): -
Fi AMP AVG ([1]; AA 105 Thr): -0.391
Fi AMP 1 ([1]; AA 105 Thr, replicate 1): -0.402
Fi AMP 2 ([1]; AA 105 Thr, replicate 2): -0.379
Fi AMP AVG ([1]; AA 105 Trp): 0.019
Fi AMP 1 ([1]; AA 105 Trp, replicate 1): 0.033
Fi AMP 2 ([1]; AA 105 Trp, replicate 2): 0.006
Fi AMP AVG ([1]; AA 105 Tyr): 0.000
Fi AMP 1 ([1]; AA 105 Tyr, replicate 1): 0.000
Fi AMP 2 ([1]; AA 105 Tyr, replicate 2): 0.000
Significance (Average fitnes AMP) ([1]; AA 105 Val): -
Fi AMP AVG ([1]; AA 105 Val): -0.403
Fi AMP 1 ([1]; AA 105 Val, replicate 1): -0.371
Fi AMP 2 ([1]; AA 105 Val, replicate 2): -0.435
WT abs Fi 1 ([1]; absolute fitness of TEM-1 WT, AMP, replicate 1): 0.351
WT abs Fi 2 ([1]; absolute fitness of TEM-1 WT, AMP, replicate 2): 0.374
MIC [2]: 400 µg/mL (≈ 1140 µM)
MIC [3]: 200 µg/mL (≈ 572 µM)
MIC [4]: 50 µg/mL (≈ 143 µM)
MIC [5]: 10 µg/mL (≈ 28.6 µM)
Fi AVG (average fitness of replicates) ([6]; KPC-2 AA 105 = Ala): -2.717
Fi AVG (average fitness of replicates) ([6]; KPC-2 AA 105 = Arg): -1.311
Significance of average fitness ([6]; KPC-2 AA 105 = Arg): -
Fi AVG (average fitness of replicates) ([6]; KPC-2 AA 105 = Asn): -2.270
Significance of average fitness ([6]; KPC-2 AA 105 = Asn): -
Fi AVG (average fitness of replicates) ([6]; KPC-2 AA 105 = Cys): -1.421
Significance of average fitness ([6]; KPC-2 AA 105 = Cys): -
Fi AVG (average fitness of replicates) ([6]; KPC-2 AA 105 = Gln): -2.210
Significance of average fitness ([6]; KPC-2 AA 105 = Gln): -
Fi AVG (average fitness of replicates) ([6]; KPC-2 AA 105 = Glu): -2.582
Significance of average fitness ([6]; KPC-2 AA 105 = Glu): -
Fi AVG (average fitness of replicates) ([6]; KPC-2 AA 105 = Gly): -1.606
Significance of average fitness ([6]; KPC-2 AA 105 = Gly): -
Fi AVG (average fitness of replicates) ([6]; KPC-2 AA 105 = His): -0.658
Fi AVG (average fitness of replicates) ([6]; KPC-2 AA 105 = Leu): -1.411
Significance of average fitness ([6]; KPC-2 AA 105 = Leu): -
Fi AVG (average fitness of replicates) ([6]; KPC-2 AA 105 = Met): -2.639
Significance of average fitness ([6]; KPC-2 AA 105 = Met): -
Fi AVG (average fitness of replicates) ([6]; KPC-2 AA 105 = Phe): -0.181
Fi AVG (average fitness of replicates) ([6]; KPC-2 AA 105 = Pro): -1.601
Significance of average fitness ([6]; KPC-2 AA 105 = Pro): -
Fi AVG (average fitness of replicates) ([6]; KPC-2 AA 105 = Ser): -2.329
Significance of average fitness ([6]; KPC-2 AA 105 = Ser): -
Fi AVG (average fitness of replicates) ([6]; KPC-2 AA 105 = Thr): -2.338
Fi AVG (average fitness of replicates) ([6]; KPC-2 AA 105 = Trp (WT, reference)): 0.000
Fi AVG (average fitness of replicates) ([6]; KPC-2 AA 105 = Tyr): -1.608
Significance of average fitness ([6]; KPC-2 AA 105 = Tyr): -
Fi AVG (average fitness of replicates) ([6]; KPC-2 AA 105 = Val): -2.672
Significance of average fitness ([6]; KPC-2 AA 105 = Val): -
WT abs Fi 1 (absolute fitness) ([6]; KPC-2 WT (Trp 105), replicate 1): 0.183
WT abs Fi 2 (absolute fitness) ([6]; KPC-2 WT (Trp 105), replicate 2): 0.061
WT abs Fi 3 (absolute fitness) ([6]; KPC-2 WT (Trp 105), replicate 3): 0.422
